# Where a name gives a salt, the structure may show the parent alone. Read-outs that look alike come from different tables or passages of the source.
# Key:
# KRAS G12C = target: T1, KRAS G12C (Homo sapiens, UniProt P01116, G12C); experiment: KRAS G12C NEA-HTRF experiment (SOS1-catalyzed displacement of GDP by GTP); format: biochemical
# T1 construct: purchased Reactionbiology
# Outline: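 His-tagged KRAS G12C preloaded with DY647-GDP was preincubated 15 min at 20 °C with compound, then exchanged with SOS1 (0.2 μM working solution) and GTP (200 μM working solution) for 2 h at 20 °C in the dark. HTRF 665/615 nm ratio with anti-His-Tb was normalised to T0 and no-compound controls; IC50 by four-parameter fit.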
# [1] = tested on: KRAS G12C mutant MIA PaCa-2 cells; experiment: Cell proliferation inhibition experiment, 3D spheroid, CellTiter-Glo, MIA PaCa-2; format: cell-based, human; details: read-out: MIA-PaCa2 IC50
# Outline: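 200 MIA PaCa-2 cells/well grown overnight as 3D spheroids, then exposed to 3.16-fold compound dilutions (0.1% DMSO final) for 5 days. Viability read by CellTiter-Glo luminescence; inhibition calculated against DMSO and medium-only controls, and IC50 fitted by four-parameter model.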
# [2] = Homo sapiens, MIA PaCa-2, 120 h, 3D cell model in 384-well spheroid plate, 5 days, CellTiter-Glo
# [3] = 3D cell model in 384-well spheroid plate, 5 days, CellTiter-Glo
# [4] = Homo sapiens, MIA PaCa-2, 120 h
# T1 sequence (P01116 1-188 isoform P01116-2 G12C): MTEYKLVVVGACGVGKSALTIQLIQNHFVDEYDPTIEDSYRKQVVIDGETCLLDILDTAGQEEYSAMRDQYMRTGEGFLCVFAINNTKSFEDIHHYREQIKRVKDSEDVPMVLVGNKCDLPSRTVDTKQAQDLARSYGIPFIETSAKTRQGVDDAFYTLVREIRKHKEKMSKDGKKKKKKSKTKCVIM
IC50 (KRAS G12C),"IC50 [1, 2]","IC50 [1, 3]",SMILES,"IC50 [1, 4]"
6 nM,–,–,"C=CC(=O)N1CCN2C(=O)c3c(N4C[C@@H](O)CC4(C)C)nc(-c4c(O)cccc4F)c(Cl)c3OC[C@H]2C1 (single isomer, unassigned) [Z81]",–
–,22.8 nM,–,"C=CC(=O)N1CCN2C(=O)c3c(N4CCN(C)[C@H](C)C4)nc(-c4c(O)cccc4F)c(Cl)c3OC[C@H]2C1 [Z235, (6aR)-8-acryloyl-4-chloro-1-((R)-3,4-dimethylpiperazin-1-yl)-3-(2-fluoro-6-hydroxyphenyl)-6,6a,7,8,9,10-hexahydro-12H-pyrazino[2,1-c]pyrido[3,4-f][1,4]oxazepin-12-one]",–
692 nM,–,86.9 nM,"C=CC(=O)N1CCN2C(=O)c3c(N4CCN(C)C[C@@H]4C)nc(-c4c(O)cccc4Cl)c(Cl)c3OC[C@H]2C1 (single isomer, unassigned) [Z455-1]",–
139 nM,–,–,"C=CC(=O)N1CCN2C(=O)c3c(N4CC(=O)N(C)CC4C)nc(-c4c(O)cccc4F)c(Cl)c3OC[C@H]2C1 (single isomer, unassigned) [Z221-2]",–
176 nM,26 nM,–,"C=CC(=O)N1CCN2C(=O)c3c(OC4CCN(C)CC4)nc(-c4c(O)cccc4F)c(Cl)c3OC[C@H]2C1 [Z61, (6aR)-8-acryloyl-4-chloro-3-(2-fluoro-6-hydroxyphenyl)-1-((1-methylpiperidin-4-yl)oxy)-6,6a,7,8,9,10-hexahydro-12H-pyrazino[2,1-c]pyrido[3,4-f][1,4]oxazepin-12-one]",–
173 nM,34 nM,–,"C=CC(=O)N1CCN2C(=O)c3c(N4CCOC5CC54)nc(-c4c(O)cccc4F)c(Cl)c3OC[C@H]2C1 (stereo partly drawn) [Z76, (6aR)-8-acryloyl-4-chloro-1-(2-oxa-5-azabicyclo[4.1.0]heptan-5-yl)-3-(2-fluoro-6-hydroxyphenyl)-6,6a,7,8,9,10-hexahydro-12H-pyrazino[2,1-c]pyrido[3,4-f][1,4]oxazepin-12-one]",–
33 nM,4.4 nM,–,"C=CC(=O)N1CCN2C(=O)c3c(N4C[C@@H](O)C[C@@H]4C)nc(-c4c(O)cccc4F)c(Cl)c3OC[C@H]2C1 [Z260, (6aR)-8-acryloyl-4-chloro-3-(2-fluoro-6-hydroxyphenyl)-1-((2S,4S)-4-hydroxy-2-methylpyrrolidin-1-yl)-6,6a,7,8,9,10-hexahydro-12H-pyrazino[2,1-c]pyrido[3,4-f][1,4]oxazepin-12-one]",–
150 nM,10.6 nM,–,"C=CC(=O)N1CCN2C(=O)c3c(N4CCN(C)C(C)(C)C4)nc(-c4c(O)cccc4F)c(Cl)c3OC[C@H]2C1 [Z261, (6aR)-8-acryloyl-4-chloro-3-(2-fluoro-6-hydroxyphenyl)-1-(3,3,4-trimethylpiperazin-1-yl)-6,6a,7,8,9,10-hexahydro-12H-pyrazino[2,1-c]pyrido[3,4-f][1,4]oxazepin-12-one]",–
46.3 nM,–,9.2 nM,"C=CC(=O)N1CCN2C(=O)c3c(N4CCN(C)C[C@@H]4C)nc(-c4c(O)cccc4Cl)c(Cl)c3OC[C@H]2C1 (single isomer, unassigned) [Z455-2]",–
167 nM,34 nM,–,"C=CC(=O)N1CCN2C(=O)c3c(N4CCNC(C)C4C)nc(-c4c(O)cccc4F)c(Cl)c3OC[C@H]2C1 (stereo partly drawn) [Z308, (6aR)-8-acryloyl-4-chloro-1-(2,3-dimethylpiperazin-1-yl)-3-(2-fluoro-6-hydroxyphenyl)-6,6a,7,8,9, 10-hexahydro-12H-pyrazino[2,1-c]pyrido[3,4-f][1,4]oxazepin-12-one]",–
111 nM,–,1.7 nM,"C=CC(=O)N1CCN2C(=O)c3c(N4CCN(C)C(C)C4C)nc(-c4c(O)cccc4F)c(Cl)c3OC[C@H]2C1 (stereo partly drawn) [Z308a, (6aR)-8-acryloyl-4-chloro-3-(2-fluoro-6-hydroxyphenyl)-1-(2,3,4-trimethylpiperazin-1-yl)-6,6a,7,8,9,10-hexahydro-12H-pyrazino[2,1-c]pyrido[3,4-f][1,4]oxazepin-12-one]",–
–,23 nM,–,"C=CC(=O)N1CCN2C(=O)c3c(N4CCOC5(CC5)C4)nc(-c4c(O)cccc4F)c(Cl)c3OC[C@H]2C1 [Z63, (6aR)-8-acryloyl-4-chloro-1-(4-oxa-7-azaspiro[2.5]octan-7-yl)-3-(2-fluoro-6-hydroxyphenyl)-6,6a,7,8,9,10-hexahydro-12H-pyrazino[2,1-c]pyrido[3,4-f][1,4]oxazepin-12-one]",–
44 nM,–,–,"C=CC(=O)N1CCN2C(=O)c3c(N4C[C@H](O)CC4(C)C)nc(-c4c(O)cccc4F)c(Cl)c3OC[C@H]2C1 (single isomer, unassigned) [Z82]",–
36 nM,4.5 nM,–,"C=CC(=O)N1CCN2C(=O)c3c(N4CC(=O)N(C)CC4C)nc(-c4c(O)cccc4F)c(Cl)c3OC[C@H]2C1 (stereo partly drawn) [Z221, (6aR)-8-acryloyl-4-chloro-1-(2,4-dimethyl-5-oxopiperazin-1-yl)-3-(2-fluoro-6-hydroxyphenyl)-6,6a,7,8,9,10-hexahydro-12H-pyrazino[2,1-c]pyrido[3,4-f][1,4]oxazepin-12-one]",–
113 nM,–,–,"C=CC(=O)N1CCN2C(=O)c3c(N4C[C@H](O)C[C@@H]4C)nc(-c4c(O)cccc4F)c(Cl)c3OC[C@H]2C1 [Z259, (6aR)-8-acryloyl-4-chloro-3-(2-fluoro-6-hydroxyphenyl)-1-((2S,4R)-4-hydroxy-2-methylpyrrolidin-1-yl)-6,6a,7,8,9,10-hexahydro-12H-pyrazino[2,1-c]pyrido[3,4-f][1,4]oxazepin-12-one]",–

# The next lines start with the molecule.
SMILES,IC50 (KRAS G12C),"IC50 [1, 2]","IC50 [1, 3]","IC50 [1, 4]"
"C=CC(=O)N1CCN2C(=O)c3c(NC(C)C)nc(-c4c(O)cccc4F)c(Cl)c3OC[C@H]2C1 [Z75, (6aR)-8-acryloyl-4-chloro-1-(isopropylamino)-3-(2-fluoro-6-hydroxyphenyl)-6,6a,7,8,9,10-hexahydro-12H-pyrazino[2,1-c]pyrido[3,4-f][1,4]oxazepin-12-one]",138 nM,67 nM,–,–
"C=CC(=O)N1CCN2C(=O)c3c(N4CC(N(C)C5COC5)CC4(C)C)nc(-c4c(O)cccc4F)c(Cl)c3OC[C@H]2C1 (single isomer, unassigned) [Z331-2]",7 nM,–,1.3 nM,–
"C=CC(=O)N1CCN2C(=O)c3c(N4C[C@H](N(C)CCF)CC4(C)C)nc(-c4ccccc4F)c(Cl)c3OC[C@H]2C1 (single isomer, unassigned) [Z660-2]",50.5 nM,–,47 nM,–
"C=CC(=O)N1CCN2C(=O)c3c(N4CCN(C)C(C)(C)C4)nc(-c4ccccc4F)c(Cl)c3OC[C@H]2C1 [Z463, (R)-8-acryloyl-4-chloro-3-(2-fluorophenyl)-1-(3,3,4-trimethylpiperazin-1-yl)-6,6a,7,8,9,10-hexahydro-12H-pyrazino[2,1-c]pyrido[3,4-f][1,4]oxazepin-12-one, formate]",760 nM,–,–,59 nM
"C=CC(=O)N1CCN2C(=O)c3c(N4CC(N5CCOCC5)CC4(C)C)nc(-c4ccccc4F)c(Cl)c3OC[C@H]2C1 (single isomer, unassigned) [Z468-2]",46.5 nM,–,12 nM,–
"C=CC(=O)N1CCN2C(=O)c3c(C4NCCN5C(=O)CCC45C)nc(-c4c(O)cccc4F)c(Cl)c3OC[C@H]2C1 (stereo partly drawn) [Z337, (6aR)-8-acryloyl-4-chloro-3-(2-fluoro-6-hydroxyphenyl)-1-(8a-methylhexahydropyrrolo[1,2-a]pyrazin-6 (2H)-one-1-yl)-6,6a,7,8,9,10-hexahydro-12H-pyrazino[2,1-c]pyrido[3,4-f][1,4]oxazepin-12-one]",58 nM,–,16 nM,–
C=CC(=O)N1CCN2C(=O)c3c(N4CC(N(C)CC(F)F)CC4(C)C)nc(-c4ccccc4F)c(Cl)c3OC[C@H]2C1 (stereo partly drawn) [Z659],19.4 nM,–,9.3 nM,–
"C=CC(=O)N1CCN2C(=O)c3c(N4C[C@H](N(C)C)CC4(C)C)nc(-c4ccccc4)c(Cl)c3OC[C@H]2C1 (single isomer, unassigned) [Z655-2]",128 nM,–,50.9 nM,–
C=CC(=O)N1CCN2C(=O)c3c(N4CCN(CC)C[C@@H]4C)nc(-c4c(O)cccc4F)c(Cl)c3OC[C@H]2C1 [Z236],113 nM,–,–,7.9 nM
"C=CC(=O)N1CCN2C(=O)c3c(N4C[C@H](NC)CC4(C)C)nc(-c4ccccc4F)c(Cl)c3OC[C@H]2C1 (single isomer, unassigned) [Z661-2]",511 nM,4 nM,–,–
"C=CC(=O)N1CCN2C(=O)c3c(N(C)c4c(C)ccnc4C(C)C)nc(-c4c(O)cccc4F)c(Cl)c3OC[C@H]2C1 [Z6, (6aR)-8-acryloyl-4-chloro-3-(2-fluoro-6-hydroxyphenyl)-1-((2-isopropyl-4-methylpyridin-3-yl)(methyl)amino)-6,6a,7,8,9,10-hexahydro-12H-pyrazino[2,1-c]pyrido[3,4-f][1,4]oxazepin-12-one]",–,17 nM,–,–
"C=CC(=O)N1CCN2C(=O)c3c(NC(C)(C)C)nc(-c4c(O)cccc4F)c(Cl)c3OC[C@H]2C1 [Z69, (6aR)-8-acryloyl-1-(tert-butylamino)-4-chloro-3-(2-fluoro-6-hydroxyphenyl)-6,6a,7,8,9,10-hexahydro-12H-pyrazino[2,1-c]pyrido[3,4-f][1,4]oxazepin-12-one]",79 nM,28 nM,–,–
"C=CC(=O)N1CCN2C(=O)c3c(Nc4c(C)ccnc4C(C)C)nc(-c4c(O)cccc4F)c(Cl)c3OC[C@H]2C1 [Z5, (6aR)-8-acryloyl-4-chloro-3-(2-fluoro-6-hydroxyphenyl)-1-((2-isopropyl-4-methylpyridin-3-yl)amino)-6,6a,7,8,9,10-hexahydro-12H-pyrazino[2,1-c]pyrido[3,4-f][1,4]oxazepin-12-one]",–,143 nM,–,–
